Results on 26 compounds are retold here after ChEMBL document CHEMBL2401715, “Synthesis, antitumor and antibacterial activities of some novel tetrahydrobenzo[4,5]thieno[2,3-d]pyrimidine derivatives” (Eur J Med Chem, 2013).

The test system of assay [1] is Escherichia coli. The assay can be described thus: Antibacterial activity against Escherichia coli ATCC 11775 assessed as growth inhibition after 24 to 48 hrs by kirby-bauer disc diffusion method. Also: test concentration or dose not given here. The assay is classed as functional, DSM 30083 = JCM 1649. In general terms: A growth-free zone around the sample is the usual read-out of agar diffusion tests.
The test system of assay [2] is MCF7. The assay is described as follows: Cytotoxicity against human MCF7 cells assessed as cell survival after 48 hrs by SRB assay. The assay is classed as functional, cell-based. The conditions noted are these: MCF7, 48 h. Background: In SRB staining, fixed cells bind dye roughly in proportion to their protein.
For assay [3], the system named is Bacillus subtilis. The assay can be described thus: Antibacterial activity against Bacillus subtilis ATCC 6051 assessed as growth inhibition after 24 to 48 hrs by kirby-bauer disc diffusion method. Also: test concentration or dose not given here. Format: functional.
Assay [4] relates to HepG2. The assay can be described thus: Cytotoxicity against human HepG2 cells assessed as cell survival after 48 hrs by SRB assay. Format: functional, cell-based. The conditions noted are these: HepG2, 48 h.
Assay [5] concerns Pseudomonas aeruginosa. The assay can be described thus: Antibacterial activity against Pseudomonas aeruginosa ATCC 10145 assessed as growth inhibition after 24 to 48 hrs by kirby-bauer disc diffusion method. Also: test concentration or dose not given here. The assay is classed as functional.
Assay [6] has as its system Staphylococcus aureus. The assay is described as follows: Antibacterial activity against Staphylococcus aureus ATCC 12600 assessed as growth inhibition after 24 to 48 hrs by kirby-bauer disc diffusion method. Also: test concentration or dose not given here. The assay is classed as functional.

pIC50: −log10 of the molar value.

As a reminder, the pIC50 is −log10 of the IC50, conventionally taken in molar units.

Regarding `COc1cc(-c2nc3sc4c(c3c(=O)n2-c2nc3cc(C)ccc3s2)CCCC4)cc(OC)c1OC`, the “diameter of the inhibition zone (DIZ)” value in assay [1] turned out to be 12 mm; in assay [3], 11 mm; in assay [5], 12 mm; in assay [6], 14 mm. Besides, the values for the pIC50 in assay [2] and in assay [4] were 4.18 and below 3.72, respectively.

As to `COc1cc(-c2nc3sc4c(c3c(=O)n2C(Cc2ccccc2)C(=O)O)CCCC4)cc(OC)c1OC` (stereo unspecified), the “diameter of the inhibition zone (DIZ)” value in assay [1] is given as 13 mm; in assay [3], 12 mm; in assay [5] it was 13 mm; in assay [6], 10 mm. In addition, the pIC50 was 4.30 in assay [2] and 4.71 in assay [4].

Turning to `COc1cc(-c2nc3sc4c(c3c(=O)n2C(Cc2cc3ccccc3[nH]2)C(=O)O)CCCC4)cc(OC)c1OC` (stereo unspecified), the “diameter of the inhibition zone (DIZ)” value in assay [1], in assay [3], in assay [5] and in assay [6] was 0 mm throughout. For the same compound, the figures for the pIC50 in assay [2] and in assay [4] were below 3.75 and 4.51, respectively.

For the compound `COc1cc(-c2nc3sc4c(c3c(=O)n2C2CONC2=O)CCCC4)cc(OC)c1OC` (stereo unspecified), the “diameter of the inhibition zone (DIZ)” value in assay [1] amounted to 17 mm; in assay [3], 15 mm; in assay [5], 14 mm; in assay [6], 15 mm. In addition, the values for the pIC50 in assay [2] and in assay [4] were 4.26 and 4.60, respectively.

With `COc1cc(-c2nc3sc4c(c3c(=O)n2-c2cc(=O)[nH]c(=O)[nH]2)CCCC4)cc(OC)c1OC`, the “diameter of the inhibition zone (DIZ)” value was found to be 14 mm in assay [1], 11 mm in assay [3], 14 mm in assay [5] and 11 mm in assay [6]. Also, the figures for the pIC50 in assay [2] and in assay [4] were 4.08 and 4.06, respectively.

As to `COc1cc(-c2nc3sc4c(c3c(=O)n2-c2nc3ccccc3s2)CCCC4)cc(OC)c1OC`, the “diameter of the inhibition zone (DIZ)” value in assay [1] worked out at 15 mm; in assay [3], 13 mm; in assay [5] it was 15 mm; in assay [6], 14 mm. The pIC50 in assay [2] was 4.94; in assay [4] it was 5.29.

For `COc1cc(-c2nc3sc4c(c3c(=O)n2-c2nc3cc([N+](=O)[O-])ccc3s2)CCCC4)cc(OC)c1OC`, the “diameter of the inhibition zone (DIZ)” value is on record as 15 mm in assay [1], 14 mm in assay [3], 14 mm in assay [5] and 15 mm in assay [6]. For the same compound, the pIC50 is 4.67 in assay [2] and 4.43 in assay [4].

Consider `NC(=S)n1c(/C=C/c2ccccc2)nc2sc3c(c2c1=O)CCCC3`, for which the “diameter of the inhibition zone (DIZ)” value in assay [1] worked out at 13 mm; in assay [3], 13 mm; in assay [5] it was 13 mm; in assay [6], 14 mm. For the same compound, the pIC50 is 4.97 in assay [2] and 4.75 in assay [4].

For the compound `NC(=O)n1c(/C=C/c2ccccc2)nc2sc3c(c2c1=O)CCCC3`, the “diameter of the inhibition zone (DIZ)” value in assay [1] turned out to be 14 mm; in assay [3] it was 14 mm; in assay [5], 15 mm; in assay [6], 16 mm. Further, the values for the pIC50 in assay [2] and in assay [4] were 4.87 and 4.73, respectively.

Regarding `O=C(NO)n1c(/C=C/c2ccccc2)nc2sc3c(c2c1=O)CCCC3`, the “diameter of the inhibition zone (DIZ)” value was determined as 13 mm in assay [1], 12 mm in assay [3], 14 mm in assay [5] and 15 mm in assay [6]. The figures for the pIC50 in assay [2] and in assay [4] were 4.62 and 4.28, respectively.

Take `O=C(O)c1ccc(-n2c(/C=C/c3ccccc3)nc3sc4c(c3c2=O)CCCC4)cc1`: the “diameter of the inhibition zone (DIZ)” value came to 16 mm in assay [1], 14 mm in assay [3], 14 mm in assay [5] and 19 mm in assay [6]. The negative logarithm of the IC50 (pIC50) in assay [2] was 4.34; in assay [4], 4.43.

Consider `NS(=O)(=O)c1ccc(-n2c(/C=C/c3ccccc3)nc3sc4c(c3c2=O)CCCC4)cc1`, for which the “diameter of the inhibition zone (DIZ)” value is reported as 15 mm in assay [1], 14 mm in assay [3], 15 mm in assay [5] and 14 mm in assay [6]. Moreover, the pIC50 was 6.37 in assay [2] and 5.89 in assay [4].

Consider `O=C(O)C(Cc1ccccc1)n1c(/C=C/c2ccccc2)nc2sc3c(c2c1=O)CCCC3` (stereo unspecified), for which the “diameter of the inhibition zone (DIZ)” value was found to be 14 mm in assay [1], 13 mm in assay [3], 14 mm in assay [5] and 16 mm in assay [6]. Moreover, the pIC50 in assay [2] was 4.34; in assay [4], 4.50.

With `O=C(O)C(Cc1cc2ccccc2[nH]1)n1c(/C=C/c2ccccc2)nc2sc3c(c2c1=O)CCCC3` (stereo unspecified), the “diameter of the inhibition zone (DIZ)” value in assay [1], in assay [3], in assay [5] and in assay [6] was 0 mm each time. Moreover, the pIC50 in assay [2] was below 3.70; in assay [4], 4.53.

As for `O=C1NOCC1n1c(/C=C/c2ccccc2)nc2sc3c(c2c1=O)CCCC3` (stereo unspecified), the “diameter of the inhibition zone (DIZ)” value in assay [1] was found to be 15 mm; in assay [3], 15 mm; in assay [5], 16 mm; in assay [6] it was 19 mm. Also, the negative logarithm of the IC50 (pIC50) in assay [2] was 4.40; in assay [4], 5.16.

As to `O=c1cc(-n2c(/C=C/c3ccccc3)nc3sc4c(c3c2=O)CCCC4)[nH]c(=O)[nH]1`, the “diameter of the inhibition zone (DIZ)” value in assay [1] was found to be 15 mm; in assay [3] it was 16 mm; in assay [5], 15 mm; in assay [6] it was 18 mm. Further, the pIC50 in assay [2] is 4.95; in assay [4], 4.17.

For `O=c1c2c3c(sc2nc(/C=C/c2ccccc2)n1-c1nc2ccccc2s1)CCCC3`, the “diameter of the inhibition zone (DIZ)” value in assay [1] stood at 13 mm; in assay [3], 13 mm; in assay [5], 14 mm; in assay [6] it was 16 mm. Moreover, the values for the pIC50 in assay [2] and in assay [4] were 5.37 and 4.97, respectively.

Take `Cc1ccc2sc(-n3c(/C=C/c4ccccc4)nc4sc5c(c4c3=O)CCCC5)nc2c1`: the “diameter of the inhibition zone (DIZ)” value in assay [1] came out at 14 mm; in assay [3], 15 mm; in assay [5], 14 mm; in assay [6] it was 16 mm. Besides, the pIC50 was 4.80 in assay [2] and 4.44 in assay [4].

For `O=c1c2c3c(sc2nc(/C=C/c2ccccc2)n1-c1nc2cc([N+](=O)[O-])ccc2s1)CCCC3`, the “diameter of the inhibition zone (DIZ)” value in assay [1] is on record as 14 mm; in assay [3], 14 mm; in assay [5] it was 15 mm; in assay [6] it was 15 mm. Moreover, the pIC50 in assay [2] is 5.91; in assay [4] it was 4.99.

Turning to `O=c1[nH]c(/C=C/c2ccccc2)nc2sc3c(c12)CCCC3`, the “diameter of the inhibition zone (DIZ)” value in assay [1], in assay [3], in assay [5] and in assay [6] was 0 mm each time. In addition, the pIC50 is 4.55 in assay [2] and 4.92 in assay [4].

Take `O=c1[nH]c(/C=C/c2ccccc2[N+](=O)[O-])nc2sc3c(c12)CCCC3`: the “diameter of the inhibition zone (DIZ)” value in assay [1] stood at 10 mm; in assay [3], 0 mm; in assay [5], 0 mm; in assay [6], 0 mm. Also, the pIC50 in assay [2] and in assay [4] was 4.93 throughout.

Take `C/C(=C\c1ccccc1)c1nc2sc3c(c2c(=O)[nH]1)CCCC3`: the “diameter of the inhibition zone (DIZ)” value in assay [1], in assay [3], in assay [5] and in assay [6] was 0 mm in each case. Moreover, the values for the pIC50 in assay [2] and in assay [4] were 4.61 and 4.48, respectively.

Consider `COc1cc(-c2nc(NC(=O)NO)c3c4c(sc3n2)CCCC4)cc(OC)c1OC`, for which the “diameter of the inhibition zone (DIZ)” value in assay [1], in assay [3], in assay [5] and in assay [6] was 0 mm throughout. Also, the results for the pIC50 in assay [2] and in assay [4] were 4.85 and 5.63, respectively.

As for `O=C(NO)Nc1nc(/C=C/c2ccccc2)nc2sc3c(c12)CCCC3`, the “diameter of the inhibition zone (DIZ)” value is given as 10 mm in assay [1], 11 mm in assay [3], 12 mm in assay [5] and 10 mm in assay [6]. Besides, the pIC50 in assay [2] is 5.18; in assay [4] it was 5.49.

On to `Cc1c2ccc(N)cc2nc2cc(Nc3nc(/C=C/c4ccccc4)nc4sc5c(c34)CCCC5)ccc12`, for which the “diameter of the inhibition zone (DIZ)” value came out at 12 mm in assay [1], 20 mm in assay [3], 12 mm in assay [5] and 21 mm in assay [6]. The pIC50 in assay [2] is 6.24; in assay [4] it was 5.87.

On to `COc1cccc2c1C(=O)c1c(O)c3c(c(O)c1C2=O)C[C@@](O)(C(=O)CO)C[C@@H]3O[C@H]1C[C@H](N)[C@H](O)[C@H](C)O1` [DOXORUBICIN], for which, in assay [4], the pIC50 was 5.13.
